Measured values: US20100197600A1, “USE OF THE PEPTIDE HIS-SER-LEU-GLY-LYS-TRP-LEU-GLY-HIS-PRO-ASP-LYS-PHE ALONE OR IN COMBINATION WITH THE PEPTIDE PRO-GLY-THR-CYS-GLU-ILE-CYS-ALA-TYR-ALA-ALA-CYS-THR-GLY-CYS-OH AS A THERAPEUTIC AGENT” (priority 2007, published 2010)
No end group written: not given here.

Columns and labels:
HCMV strain AD169 = test: HCMV plaque formation assay in MRC-5 cells; conditions: for inhibition of HCMV plaque formation as compared to the virus control experiment: 10 micrograms per ml, MRC-5 cells, 7-10 days
Streptococcus pneumoniae = Streptococcus pneumoniae assay; conditions: 10 micrograms per ml; visual reading
[1] = tested on: Primary Human endothelial cells (HUVEC); test: Endothelial cell migration assay; type: cell-based; conditions: 10 micrograms per ml, 22 hours
HIV-1IIIB = test: HIV-1 antiviral (cytopathic effect) assay in CEM-SS cells; conditions: for reduction of the cytopathic effect (CPE) in HIV-1 infected CEM-SS cells: 10 micrograms per ml, HIV-1IIIB, MTS readout; for antiviral activity of positive control compounds: HIV-1IIIB in CEM-SS cells
HUVEC = test: Endothelial tube formation assay; type: cell-based, human; conditions: 10 micrograms per ml, 20 hours
Source text: Positive control wes vehicle only.

murine spleen cells = test: Th1/Th2 cytokine profiling assay; type: cell-based, mouse; conditions: 10 micrograms per ml; Ovalbumin-restimulated murine spleen cells; 72 hours
[2] = tested on: hepatitis B virus (HBV) ayw strain; test: HBV experimental assay system (secreted HBV DNA, TaqMan PCR); type: cell-based; conditions: 10 micrograms per ml; HepG2-2.2.15 cells; HBV DNA after six days

Row | Compound | inhibition of HCMV plaque formation as compared to the virus control experiment (HCMV strain AD169) | inhibition of the growth of Streptococcus pneumoniae (Streptococcus pneumoniae) | inhibition of the migration of human endothelial cells [1] | reduction of the cytopathic effect (CPE) in HIV-1 infected CEM-SS cells (HIV-1IIIB) | inhibition of the tube formation of human endothelial cells (HUVEC) | change of the production of IL-5 (murine spleen cells) | decrease of the production of IFN-γ (murine spleen cells) | increase (induction) of the production of TNF-α (murine spleen cells) | increase of the production of IL-2 (murine spleen cells) | increase of the production of IL-4 (murine spleen cells) | inhibition of HBV replication as compared to the virus control infection [2] | antiviral activity of positive control compound (HCMV strain AD169; positive control, HCMV in MRC-5 cells) | antiviral activity of positive control compounds (HIV-1IIIB)
1 | His-Ser-Leu-Gly-Lys-Trp-Leu-Gly-His-Pro-Asp-Lys-Phe (HSLGKWLGHPDKF; printed: His-Ser-Leu-Gly-Lys-Trp-Leu-Gly-His-Pro-Asp-Lys-Phe) [Peptide 1] | did not inhibit | 100% | 12% | 43.9% | 10% | did not significantly change | did not significantly change | 21.2% | 106.5% | 117.8% | 43.4% |  | 
2 | Nc1nc(O)c2ncn(COC(CO)CO)c2n1 [Ganciclovir, reference compound] |  |  |  |  |  |  |  |  |  |  |  | expected levels of antiviral activity | 
3 | Pro-Gly-Thr-Cys-Glu-Ile-Cys-Ala-Tyr-Ala-Ala-Cys-Thr-Gly-Cys-OH (PGTCEICAYAACTGC-OH; cysteine pairing not given here) [Peptide 2] | did not inhibit | no effect | 24% | 13.2% | 10% | did not significantly change | 38% | did not significantly change | 35.5% | 43.8% | 21.7% |  | 
4 | Cc1cn([C@H]2C[C@H](N=[N+]=[N-])[C@@H](CO)O2)c(=O)[nH]c1=O [AZT, zidovudine, reference compound] |  |  |  |  |  |  |  |  |  |  |  |  | expected levels of antiviral activity
5 | CC(C)(C)NC(=O)[C@@H]1CN(Cc2cccnc2)CCN1C[C@@H](O)C[C@@H](Cc1ccccc1)C(=O)N[C@H]1c2ccccc2C[C@H]1O [indinavir, reference compound] |  |  |  |  |  |  |  |  |  |  |  |  | expected levels of antiviral activity
